Assay results published in US11111245B2, “Derivatives of N-cycloalkyl/heterocycloalkyl-4-(imidazo[1,2-a]pyridine)pyrimidin-2-amine as therapeutic agents” (Aucentra Therapeutics Pty Ltd, priority 2017, dated 2021).

Assays:
CDK6/D3 = CDK6/D3 (Homo sapiens, UniProt Q00534); test: ADP Glo Kinase assay CDK6/D3; format: biochemical; conditions: CDK6D3; compound at 10 μM; read-out: residual activity (%) at 10 μM CDK6D3
Outline: (§1)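 In-house ADP-Glo assay: CDK4/D1 or CDK6/D3 with RB-CTF substrate in […] Tris pH 7.5, 20 mM MgCl2, 0.4 mM DTT, 0.1 mg/ml BSA; ATP-started, 40 min at 37° C.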

CDK9/T1 = CDK9/T1 (Homo sapiens, UniProt P50750); test: ADP Glo Kinase assay CDK9/T1; format: biochemical; conditions: CDK9T1; read-out: CDK inhibition, Ki (μM) CDK9T1
Chain of CDK9/T1 (P50750 whole entry): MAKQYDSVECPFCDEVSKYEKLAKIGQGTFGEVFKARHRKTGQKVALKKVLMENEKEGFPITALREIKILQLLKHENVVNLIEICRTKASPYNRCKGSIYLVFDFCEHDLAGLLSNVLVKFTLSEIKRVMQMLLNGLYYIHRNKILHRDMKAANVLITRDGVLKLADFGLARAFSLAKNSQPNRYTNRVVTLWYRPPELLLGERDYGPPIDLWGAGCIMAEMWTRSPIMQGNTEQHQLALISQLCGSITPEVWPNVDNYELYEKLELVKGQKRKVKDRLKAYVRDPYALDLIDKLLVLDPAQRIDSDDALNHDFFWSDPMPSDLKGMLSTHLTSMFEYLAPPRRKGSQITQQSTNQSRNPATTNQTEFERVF
Chain of CDK9/T1 (O60563 whole entry partner): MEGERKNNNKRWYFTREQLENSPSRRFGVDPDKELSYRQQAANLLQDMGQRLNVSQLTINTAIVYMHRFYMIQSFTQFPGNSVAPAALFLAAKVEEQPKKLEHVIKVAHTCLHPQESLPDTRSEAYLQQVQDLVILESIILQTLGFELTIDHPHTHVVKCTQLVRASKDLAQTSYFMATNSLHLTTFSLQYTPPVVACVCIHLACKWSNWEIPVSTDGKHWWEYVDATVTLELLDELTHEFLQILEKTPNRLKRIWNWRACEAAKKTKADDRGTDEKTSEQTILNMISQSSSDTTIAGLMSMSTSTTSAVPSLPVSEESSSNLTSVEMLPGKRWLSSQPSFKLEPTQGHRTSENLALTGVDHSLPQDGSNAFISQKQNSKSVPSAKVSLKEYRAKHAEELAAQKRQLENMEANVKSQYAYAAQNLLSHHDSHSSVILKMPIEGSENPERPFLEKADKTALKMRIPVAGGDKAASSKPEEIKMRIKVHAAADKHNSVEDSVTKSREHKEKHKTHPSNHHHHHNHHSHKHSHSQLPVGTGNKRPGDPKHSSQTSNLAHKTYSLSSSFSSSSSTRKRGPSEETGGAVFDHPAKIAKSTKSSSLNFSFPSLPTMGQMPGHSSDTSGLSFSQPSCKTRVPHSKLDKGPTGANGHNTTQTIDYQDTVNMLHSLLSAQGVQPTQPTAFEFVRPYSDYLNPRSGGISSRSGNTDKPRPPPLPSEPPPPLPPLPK
Outline: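 CDK4/D1 and CDK6/D3 were run in […] Tris pH 7.5, 20 mM MgCl2, 0.4 mM DTT, 0.1 mg/ml BSA with RB-CTF substrate; CDK9/T1 used RBER-IRStide. ATP-started reactions ran 40 min at 37° C, with ADP Glo luminescence read-out. IC50 came from 4-parameter fits; Ki from Km (ATP) and IC50.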

CDKs and other kinases [1] = biological target: T1, CDKs and other kinases (Homo sapiens, UniProt P50613); test: Radiometric kinase assay (Eurofins Pharma Discovery or Reaction Biology Corporation Kinase Profiler); format: biochemical; conditions: CDK7H; for Ki: read-out: CDK inhibition, Ki (μM) CDK7H; for remaining activity at 10 µM: compound at 10 μM, read-out: residual activity (%) at 10 μM CDK7H
T1 construct: other: CDK7H; residual activity (%) at 10 μM CDK7H; compound at 10 μM
T1 sequence (P50613 whole entry): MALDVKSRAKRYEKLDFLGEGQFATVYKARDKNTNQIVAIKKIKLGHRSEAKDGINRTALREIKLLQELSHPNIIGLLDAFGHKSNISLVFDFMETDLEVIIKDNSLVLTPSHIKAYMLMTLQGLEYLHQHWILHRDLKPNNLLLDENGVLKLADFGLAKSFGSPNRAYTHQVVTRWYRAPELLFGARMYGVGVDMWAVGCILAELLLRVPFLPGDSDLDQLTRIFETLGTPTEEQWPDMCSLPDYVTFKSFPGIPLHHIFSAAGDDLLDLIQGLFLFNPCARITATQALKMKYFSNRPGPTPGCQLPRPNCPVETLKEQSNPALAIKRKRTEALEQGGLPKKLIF
Outline: (§2)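 Other CDKs and further kinases were profiled externally by radiometric assay. In-house ADP Glo assays covered CDK4/D1 and CDK6/D3 (RB-CTF substrate, pH 7.5 Tris buffer with MgCl2, DTT, BSA) and CDK9/T1 (RBER-IRStide substrate), 40 min at 37° C.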

CDKs and other kinases [2] = biological target: T2, CDKs and other kinases (Homo sapiens, UniProt P24941); test: as above; format: biochemical; conditions: CDK2A; for Ki: read-out: CDK inhibition, Ki (μM) CDK2A; for remaining activity at 10 µM: compound at 10 μM, read-out: residual activity (%) at 10 μM CDK2A
T2 construct: other: CDK2A; residual activity (%) at 10 μM CDK2A; compound at 10 μM
Outline: as §2

CDKs and other kinases [3] = biological target: T3, CDKs and other kinases (Homo sapiens, UniProt P06493); test: as above; format: biochemical; conditions: CDK1B; for Ki: read-out: CDK inhibition, Ki (μM) CDK1B; for remaining activity at 10 µM: compound at 10 μM, read-out: residual activity (%) at 10 μM CDK1B
T3 construct: other: CDK1B; residual activity (%) at 10 μM CDK1B; compound at 10 μM
T3 sequence (P06493 whole entry): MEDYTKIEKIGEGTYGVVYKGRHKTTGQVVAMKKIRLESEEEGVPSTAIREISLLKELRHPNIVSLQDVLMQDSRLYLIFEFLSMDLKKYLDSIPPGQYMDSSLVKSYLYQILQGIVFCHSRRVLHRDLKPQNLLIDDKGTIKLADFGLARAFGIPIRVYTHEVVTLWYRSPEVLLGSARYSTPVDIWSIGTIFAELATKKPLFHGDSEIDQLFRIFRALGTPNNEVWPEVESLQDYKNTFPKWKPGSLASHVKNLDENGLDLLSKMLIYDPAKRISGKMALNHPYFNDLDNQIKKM
Outline: as §2

leukemia cell lines = test: Resazurin cell viability assay on leukemia cell lines (72 h growth inhibition, GI50); format: cell-based; conditions: Homo sapiens, MV4-11 cells
Outline: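 MTT assay for solid tumour lines and resazurin assay for leukaemia lines, run by reported methods. GI50, the concentration giving 50% growth inhibition, was obtained by non-linear regression.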

CDK4/D1 = CDK4/D1 (Homo sapiens, UniProt P11802); test: ADP Glo Kinase assay CDK4/D1; format: biochemical; conditions: CDK4D1; compound at 10 μM; read-out: residual activity (%) at 10 μM CDK4D1
Chain of CDK4/D1 (P11802 whole entry): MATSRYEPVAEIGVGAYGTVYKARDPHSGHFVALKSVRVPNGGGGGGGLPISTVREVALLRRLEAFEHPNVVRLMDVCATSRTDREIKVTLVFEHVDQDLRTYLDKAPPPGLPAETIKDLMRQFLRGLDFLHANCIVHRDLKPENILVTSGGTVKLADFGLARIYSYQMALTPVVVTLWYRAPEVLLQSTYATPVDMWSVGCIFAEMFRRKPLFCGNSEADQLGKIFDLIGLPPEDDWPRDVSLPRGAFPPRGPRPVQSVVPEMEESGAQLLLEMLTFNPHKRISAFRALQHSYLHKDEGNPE
Chain of CDK4/D1 (P24385 whole entry partner): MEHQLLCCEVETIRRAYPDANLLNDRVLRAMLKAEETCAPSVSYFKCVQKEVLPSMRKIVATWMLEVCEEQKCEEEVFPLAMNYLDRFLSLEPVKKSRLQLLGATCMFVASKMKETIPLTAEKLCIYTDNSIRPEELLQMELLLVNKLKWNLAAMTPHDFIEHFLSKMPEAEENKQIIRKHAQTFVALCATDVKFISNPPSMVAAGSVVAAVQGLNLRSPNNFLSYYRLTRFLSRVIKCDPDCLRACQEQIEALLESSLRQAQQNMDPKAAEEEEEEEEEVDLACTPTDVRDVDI
Outline: as §1

Chain of CDK6/D3 (Q00534 whole entry): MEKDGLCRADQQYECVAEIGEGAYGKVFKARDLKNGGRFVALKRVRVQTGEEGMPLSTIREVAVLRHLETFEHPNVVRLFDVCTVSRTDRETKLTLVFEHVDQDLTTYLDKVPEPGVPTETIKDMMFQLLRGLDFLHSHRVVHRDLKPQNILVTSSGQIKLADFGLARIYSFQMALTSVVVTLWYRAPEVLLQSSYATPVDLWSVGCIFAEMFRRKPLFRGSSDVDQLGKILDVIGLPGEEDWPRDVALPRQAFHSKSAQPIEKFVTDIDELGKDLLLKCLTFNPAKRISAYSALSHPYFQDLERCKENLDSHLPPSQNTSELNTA
Chain of CDK6/D3 (P30281 whole entry partner): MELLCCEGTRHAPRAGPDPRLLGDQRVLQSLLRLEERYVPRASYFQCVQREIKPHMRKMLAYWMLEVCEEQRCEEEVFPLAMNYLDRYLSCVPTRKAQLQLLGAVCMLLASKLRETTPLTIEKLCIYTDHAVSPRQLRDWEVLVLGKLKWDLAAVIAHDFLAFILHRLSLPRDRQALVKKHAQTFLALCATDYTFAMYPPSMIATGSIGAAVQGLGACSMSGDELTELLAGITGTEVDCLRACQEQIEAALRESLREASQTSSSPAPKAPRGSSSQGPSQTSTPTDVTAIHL

## Cc1cnc(N[C@H]2CC[C@H](N)CC2)nc1-c1cnc2ccc(-c3c(C)noc3C)cn12 [Compound 59, (1r,4r)-N^1-(4-(6-(3,5-Dimethylisoxazol-4-yl)imidazo [1,2-a]pyridin-3-yl)-5-methylpyrimidin-2-yl) cyclohexane-1,4-diamine]
CDK6/D3
  remaining activity at 10 µM: 91%
CDK9/T1
  Ki: 0.072 µM
CDKs and other kinases [1]
  Ki: 2.39 µM
CDKs and other kinases [2]
  Ki: 0.92 µM
CDKs and other kinases [3]
  Ki: 2.68 µM
Leukemia cell lines
  GI50: 0.274 ± 0.064 µM
CDK4/D1
  remaining activity at 10 µM: 55%

## Cc1cnc(NC2CCC(N(C)C)CC2)nc1-c1cnc2ccc(-c3ccccc3)cn12 (centres unmarked) [Compound 97, N^1,N^1-Dimethyl-N^4-(5-methyl-4-(6-phenylimidazo[1,2-^a]pyridin-3-yl)pyrimidin-2-yl)cyclohexane-1,4-diamine]
CDK6/D3
  remaining activity at 10 µM: 39%
CDK9/T1
  Ki: 0.016 µM
CDKs and other kinases [1]
  remaining activity at 10 µM: 9%
CDKs and other kinases [2]
  remaining activity at 10 µM: 32%
CDKs and other kinases [3]
  remaining activity at 10 µM: 28%
Leukemia cell lines
  GI50: 0.058 ± 0.002 µM
CDK4/D1
  remaining activity at 10 µM: 54%

## Cc1cnc(N[C@H]2CC[C@H](N)CC2)nc1-c1cnc2cc(C(F)(F)F)c(Br)cn12 [Compound 114, (1r,4r)-N^1-(4-(6-Bromo-7-(trifluoromethyl)imidazo [1,2-a]pyridin-3-yl)-5-methylpyrimidin-2-yl) cyclohexane-1,4-diamine]
CDK6/D3
  remaining activity at 10 µM: 40%
CDK9/T1
  Ki: 0.005 µM
CDKs and other kinases [1]
  Ki: 0.075 µM
CDKs and other kinases [2]
  remaining activity at 10 µM: 28%
CDKs and other kinases [3]
  remaining activity at 10 µM: 53%
Leukemia cell lines
  GI50: 0.026 ± 0.009 µM
CDK4/D1
  remaining activity at 10 µM: 8%

## Fc1cnc(N[C@H]2CC[C@H](NC3CCOCC3)CC2)nc1-c1cnc2ccccn12 [Compound 33, (1r,4r)-N^1-(5-Fluoro-4-(imidazo[1,2-a]pyridin-3-yl)pyrimidin-2-yl)-N4-(tetrahydro-2H-pyran-4-yl) cyclohexane-1,4-diamine]
CDK6/D3
  remaining activity at 10 µM: 12%
CDK9/T1
  Ki: 0.022 µM
CDKs and other kinases [1]
  remaining activity at 10 µM: 7%
CDKs and other kinases [2]
  remaining activity at 10 µM: 13%
CDKs and other kinases [3]
  remaining activity at 10 µM: 11%
Leukemia cell lines
  GI50: 0.004 ± 0.001 µM
CDK4/D1
  remaining activity at 10 µM: 7%

## N[C@H]1CC[C@H](Nc2ncc(Cl)c(-c3cnc4ccc(C(F)(F)F)cn34)n2)CC1 [Compound 13, (1r,4r)-N^1-(5-Chloro-4-(6-(trifluoromethyl)imidazo[1,2-a]pyridin-3-yl)pyrimidin-2-yl)cyclohexane-1,4-diamine]
CDK6/D3
  remaining activity at 10 µM: 59%
CDK9/T1
  Ki: 0.024 µM
CDKs and other kinases [1]
  Ki: 0.052 µM
CDKs and other kinases [2]
  Ki: 0.063 µM
CDKs and other kinases [3]
  Ki: 0.329 µM
Leukemia cell lines
  GI50: 0.022 ± 0.002 µM
CDK4/D1
  remaining activity at 10 µM: 0%

## N[C@H]1CC[C@H](Nc2ncc(Cl)c(-c3cnc4ccc(-c5ncccc5F)cn34)n2)CC1 [Compound 40, (1r,4r)-N^1-(5-Chloro-4-(6-(3-fluoropyridin-2-yl)imidazo [1,2-a]pyridin-3-yl)pyrimidin-2-yl)cyclohexane-1,4-diamine]
CDK6/D3
  remaining activity at 10 µM: 72%
CDK9/T1
  Ki: 0.014 µM
CDKs and other kinases [1]
  Ki: 0.038 µM
CDKs and other kinases [2]
  Ki: 0.73 µM
CDKs and other kinases [3]
  Ki: 0.88 µM
Leukemia cell lines
  GI50: 0.005 ± 0.001 µM
CDK4/D1
  remaining activity at 10 µM: 30%

## N[C@H]1CC[C@H](Nc2ncc(F)c(-c3cnc4ccc(NC(=O)Cc5ccccc5)cn34)n2)CC1 [Compound 52, N-(3-(2-(((1r,4r)-4-Aminocyclohexyl)amino)-5-fluoropyrimidin-4-yl)imidazo[1,2-a]pyridin-6-yl)-2-phenylacetamide]
CDK6/D3
  remaining activity at 10 µM: 21%
CDK9/T1
  Ki: 0.013 µM
CDKs and other kinases [1]
  remaining activity at 10 µM: 6%
CDKs and other kinases [2]
  remaining activity at 10 µM: 7%
CDKs and other kinases [3]
  remaining activity at 10 µM: 6%
Leukemia cell lines
  GI50: 0.008 ± 0.003 µM
CDK4/D1
  remaining activity at 10 µM: 4%

## Cc1cnc(N[C@H]2CC[C@H](N)CC2)nc1-c1cnc2ccc(NC(=O)Cc3ccccc3)cn12 [Compound 73, N-(3-(2-(((1r,4r)-4-Aminocyclohexyl)amino)-5-methylpyrimidin-4-yl)imidazo[1,2-a]pyridin-6-yl)-2-phenylacetamide]
CDK6/D3
  remaining activity at 10 µM: 49%
CDK9/T1
  Ki: 0.469 µM
CDKs and other kinases [1]
  remaining activity at 10 µM: 63%
CDKs and other kinases [2]
  remaining activity at 10 µM: 62%
CDKs and other kinases [3]
  remaining activity at 10 µM: 75%
Leukemia cell lines
  GI50: 0.752 ± 0.055 µM
CDK4/D1
  remaining activity at 10 µM: 53%
